Assay results as given in article PMC5653977 (EMBO Molecular Medicine, 2017).
Each block holds one molecule with its values, some of them ahead of it.

How the values were obtained:
[1] = system: pyramidal neurons of the prefrontal cortex; assay: Evoked inhibitory postsynaptic currents (eIPSCs) in acute prefrontal cortex slices; format: cell-based, mouse; conditions: 5 μM
Description: 300‐μm‐thick transverse slices comprising the medial prefrontal cortex (mPFC) area were prepared from 7‐ to 8‐week‐old C57Bl/6 mice as described previously (Teng et al, 2013; Agarwal et al, 2014). All recordings were performed in cortical layer V projection neurons. The bath solution consisted of oxygenated artificial cerebrospinal fluid (ACSF) containing NaCl 126 mM, KCl 3 mM, NaH2PO4 1.25 mM, MgSO4 1 mM, NaHCO3 26 mM, CaCl2 2 mM, glucose 10 mM, and the pH 7.2 adjusted with NaOH. Spontaneous GABAergic inhibitory postsynaptic currents (sIPSC) and evoked GABAergic inhibitory postsynaptic currents (eIPSC) were recorded at a holding potential of −70 mV in the presence of 6‐cyano‐7‐nitroquinoxaline‐2,3‐dione (CNQX, 10 μM) and DL‐2‐amino‐5‐phosphonovaleric acid (D‐APV, 50 μM). Glass pipettes were filled with the solution containing: KCl 140 mM, MgCl2 2 mM, CaCl2 1 mM, Na2GTP 0.5 mM, Na2ATP 4 mM, EGTA 10 mM, HEPES 10 mM. Patches with a series resistance of > 25 MΩ, a membrane resistance of < 0.8 GΩ, or leak currents of > 150 pA were excluded. Biphasic rectangular electric pulses (10 ms, 100–300 μA) were applied to layer I of the prelimbic area of mPFC through another glass pipette filled with ACSF. Synaptic currents were acquired at 20 kHz and filtered at 6 kHz, with a Digidata 1440 ADC‐converter coupled to a Multiclamp 700B amplifier (Molecular Devices, USA). […]

[2] = target: ERBB4 (Homo sapiens, UniProt Q15303); assay: Western blot of ERBB4 phosphorylation in T-47D cells; conditions: 10 ng/ml EGFld, 10 μM compound, 5 min
ERBB4, sequence (Q15303 26-1308): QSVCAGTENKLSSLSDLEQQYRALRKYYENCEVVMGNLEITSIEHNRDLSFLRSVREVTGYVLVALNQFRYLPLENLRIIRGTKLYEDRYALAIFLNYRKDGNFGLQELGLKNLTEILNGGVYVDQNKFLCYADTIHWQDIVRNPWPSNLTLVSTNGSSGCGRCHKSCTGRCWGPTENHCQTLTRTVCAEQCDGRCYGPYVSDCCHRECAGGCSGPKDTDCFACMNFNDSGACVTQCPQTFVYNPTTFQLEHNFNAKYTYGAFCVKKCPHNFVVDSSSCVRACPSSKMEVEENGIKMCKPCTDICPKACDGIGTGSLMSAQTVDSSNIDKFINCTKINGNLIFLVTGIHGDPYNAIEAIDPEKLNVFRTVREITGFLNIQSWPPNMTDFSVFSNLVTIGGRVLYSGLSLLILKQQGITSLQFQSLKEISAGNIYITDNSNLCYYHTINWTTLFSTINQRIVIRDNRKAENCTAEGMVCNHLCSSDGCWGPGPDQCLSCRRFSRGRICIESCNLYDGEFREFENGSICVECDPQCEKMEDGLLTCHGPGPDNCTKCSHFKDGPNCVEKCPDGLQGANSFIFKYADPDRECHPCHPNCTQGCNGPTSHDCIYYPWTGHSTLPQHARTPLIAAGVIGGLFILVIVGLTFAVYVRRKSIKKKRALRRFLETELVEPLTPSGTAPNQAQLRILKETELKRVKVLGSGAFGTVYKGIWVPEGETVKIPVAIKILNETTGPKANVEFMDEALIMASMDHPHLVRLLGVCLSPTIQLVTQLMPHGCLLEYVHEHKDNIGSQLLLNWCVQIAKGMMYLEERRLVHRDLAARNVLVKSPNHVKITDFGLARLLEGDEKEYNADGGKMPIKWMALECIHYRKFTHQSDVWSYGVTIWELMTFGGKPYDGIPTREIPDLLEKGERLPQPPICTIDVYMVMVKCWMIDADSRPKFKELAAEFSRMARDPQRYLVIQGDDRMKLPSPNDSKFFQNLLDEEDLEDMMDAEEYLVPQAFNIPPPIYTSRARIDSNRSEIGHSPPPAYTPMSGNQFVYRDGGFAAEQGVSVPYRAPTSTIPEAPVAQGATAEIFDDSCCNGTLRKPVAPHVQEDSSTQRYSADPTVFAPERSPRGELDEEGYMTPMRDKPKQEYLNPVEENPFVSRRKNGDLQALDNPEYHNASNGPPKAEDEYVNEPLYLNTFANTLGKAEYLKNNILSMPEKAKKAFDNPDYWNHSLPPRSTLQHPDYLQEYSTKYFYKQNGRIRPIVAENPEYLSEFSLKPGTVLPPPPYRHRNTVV

[3] = target: T1, ERBB4-PIK3R1 (Homo sapiens, UniProt Q15303); assay: ERBB4-PIK3R1 split TEV single-culture dose-response assay, EGFld as stimulus; format: cell-based; conditions: for inhibitory effect in the ERBB4-PIK3R1 single-culture assay: PC12 cells, 10 ng/ml EGFld as stimulus
T1 construct: human full‐length ERBB4‐Cyt1 was fused to the NTEV fragment; expressed in transfected cells; host or cells: PC12 Tet-Off cells (rat)
T1 sequence (Q15303 26-1308): as above
Source text: For our HTS‐compatible split TEV assay approach, human full‐length ERBB4‐Cyt1 was fused to the NTEV fragment, a TEV protease cleavage site (tevS) and the artificial co‐transcriptional activator Gal4‐VP16 (ERBB4‐NTEV‐tevS‐GV); human PIK3R1 was fused to the CTEV fragment (PIK3R1‐CTEV) (Fig 1A). Upon ERBB4 activation, PIK3R1 is recruited to the receptor resulting in a reconstituted protease activity that cleaves off GV. In turn, released GV translocates to the nucleus and binds to upstream activating sequences (UAS) to activate the transcription of a firefly luciferase reporter gene (Fig 1A). A constitutively expressed Renilla luciferase driven under the control of the human thymidine kinase (TK) promoter was used as control to address off‐target effects related to toxicity.
For one 96‐well plate, 4 × 10^6 PC12 cells were harvested and diluted in 5 ml assay medium (phenol red‐free DMEM (low glucose, Life Technologies), 10% FCS, 5% HS, no antibiotics). The split TEV assay plasmids (2 μg pcDNA3_ERBB4‐NTEV‐tevS‐GV‐2xHA, 2 μg pTag4C_PIK3R1‐CTEV‐2xHA, 2 μg p5xUAS_firefly luciferase, 2 μg pTK_Renilla luciferase, and 0.5 μg pECFP‐C1 for examining transfection efficiency) were diluted in 2.5 ml Opti‐MEM (Life Technologies) and vortexed. In parallel, 20 μl of the transfection reagent Lipofectamine 2000 was diluted in 2.5 ml Opti‐MEM and vortexed.

[4] = system: pyramidal neurons of the prefrontal cortex; assay: Spontaneous inhibitory postsynaptic currents (sIPSCs) in acute prefrontal cortex slices; format: cell-based, mouse; conditions: 10 μM, bath application
Description: 300‐μm‐thick transverse slices comprising the medial prefrontal cortex (mPFC) area were prepared from 7‐ to 8‐week‐old C57Bl/6 mice as described previously (Teng et al, 2013; Agarwal et al, 2014). All recordings were performed in cortical layer V projection neurons. The bath solution consisted of oxygenated artificial cerebrospinal fluid (ACSF) containing NaCl 126 mM, KCl 3 mM, NaH2PO4 1.25 mM, MgSO4 1 mM, NaHCO3 26 mM, CaCl2 2 mM, glucose 10 mM, and the pH 7.2 adjusted with NaOH. Spontaneous GABAergic inhibitory postsynaptic currents (sIPSC) and evoked GABAergic inhibitory postsynaptic currents (eIPSC) were recorded at a holding potential of −70 mV in the presence of 6‐cyano‐7‐nitroquinoxaline‐2,3‐dione (CNQX, 10 μM) and DL‐2‐amino‐5‐phosphonovaleric acid (D‐APV, 50 μM). Glass pipettes were filled with the solution containing: KCl 140 mM, MgCl2 2 mM, CaCl2 1 mM, Na2GTP 0.5 mM, Na2ATP 4 mM, EGTA 10 mM, HEPES 10 mM. Patches with a series resistance of > 25 MΩ, a membrane resistance of < 0.8 GΩ, or leak currents of > 150 pA were excluded. Biphasic rectangular electric pulses (10 ms, 100–300 μA) were applied to layer I of the prelimbic area of mPFC through another glass pipette filled with ACSF. Synaptic currents were acquired at 20 kHz and filtered at 6 kHz, with a Digidata 1440 ADC‐converter coupled to a Multiclamp 700B amplifier (Molecular Devices, USA). Data acquisition was performed using pClamp10 software (Molecular Devices). MiniAnalysis 6.0.9 (Synaptosoft Inc., Decatur, USA) and pClamp10.1 were used for amplitude and frequency analysis of sIPSCs and eIPSCs, respectively. Paired Student's t‐test was used for statistical analysis.

ERBB4 phosphorylation at Tyr1056 and Tyr1284 [2]: completely reverted
Molecule: CS(=O)(=O)CCNCc1ccc(-c2ccc3ncnc(Nc4ccc(OCc5cccc(F)c5)c(Cl)c4)c3c2)o1 [lapatinib, Lapatinib ditosylate]
eIPSC amplitude [1]: increases

Molecule: CS[C@@H]1CC2=CC(=O)CC[C@]2(C)C2CC[C@@]3(C)C(CCC34CCC(=O)O4)C21 (some centres unmarked)
inhibitory effect in the ERBB4-PIK3R1 single-culture assay [3]: None of these compounds showed an inhibitory effect

Molecule: C[C@]12CCC(=O)C=C1C=C[C@@H]1[C@@H]2CC[C@@]2(C)[C@H]1CC[C@@]21CCC(=O)O1 [canrenone]
sIPSC amplitude [4]: no significant effect
sIPSC frequency [4]: no significant effect
inhibitory effect in the ERBB4-PIK3R1 single-culture assay [3]: None of these compounds showed an inhibitory effect

EC50, ERBB4-PIK3R1 dose-response assay using EGFld as stimulus ([3]; PC12 split TEV assay cells, single culture): 1 ng/mL
Molecule: EGFld: soluble biologically active EGF-like domain of NRG1, used as Nrg1 stimulus (Reprokine, RKQ02297)

Molecule: COC(=O)[C@@H]1CC2=CC(=O)CC[C@]2(C)[C@@]23O[C@@H]2C[C@@]2(C)[C@@H](CC[C@@]24CCC(=O)O4)[C@H]13 [eplerenone]
inhibitory effect in the ERBB4-PIK3R1 single-culture assay [3]: None of these compounds showed an inhibitory effect
